According to US9815846B2 (Merck Sharp & Dohme Corp., priority 2014, dated 2017):

biological target: human TrkA receptor (Homo sapiens (Human), UniProt P04629); test: DiscoverX PathHunter TrkA functional assay (NGF-stimulated U2OS cells); assay type: cell-based; conditions: U2OS cells expressing human TrkA-PK, Shc1-EA and p75NTR; compound 1 h, then NGF at ~80% of maximal response for 3 h; luminescence
Sequence (P04629 33-796): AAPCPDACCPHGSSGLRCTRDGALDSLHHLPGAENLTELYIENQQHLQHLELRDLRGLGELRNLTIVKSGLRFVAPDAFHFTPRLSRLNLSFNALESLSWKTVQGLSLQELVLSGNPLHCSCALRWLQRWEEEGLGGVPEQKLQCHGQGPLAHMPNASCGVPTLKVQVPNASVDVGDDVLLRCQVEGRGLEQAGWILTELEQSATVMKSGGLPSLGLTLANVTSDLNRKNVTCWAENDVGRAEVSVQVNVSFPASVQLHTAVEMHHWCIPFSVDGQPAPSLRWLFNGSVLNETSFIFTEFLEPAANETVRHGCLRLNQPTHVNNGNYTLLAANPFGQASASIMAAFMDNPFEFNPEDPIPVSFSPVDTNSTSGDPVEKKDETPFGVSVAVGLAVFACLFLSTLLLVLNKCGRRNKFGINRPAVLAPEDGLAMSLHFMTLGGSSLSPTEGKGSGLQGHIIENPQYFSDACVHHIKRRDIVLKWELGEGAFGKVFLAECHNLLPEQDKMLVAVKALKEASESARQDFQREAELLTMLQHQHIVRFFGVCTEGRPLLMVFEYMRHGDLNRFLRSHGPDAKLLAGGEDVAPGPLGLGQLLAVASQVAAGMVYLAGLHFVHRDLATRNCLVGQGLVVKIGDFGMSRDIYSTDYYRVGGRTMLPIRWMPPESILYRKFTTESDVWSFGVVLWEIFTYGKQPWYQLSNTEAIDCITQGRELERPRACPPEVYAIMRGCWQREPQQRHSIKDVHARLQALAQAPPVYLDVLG

Compound | IC50 [nM]
Cc1ncc(NC(=O)c2ccc(C(F)(F)F)c(-c3ncco3)c2)c(-c2ccccc2)n1 [Example 20, N-(2-methyl-4-phenylpyrimidin-5-yl)-3-(1,3-oxazol-2-yl)-4-(trifluoromethyl)benzamide] | 15
Cc1ncc(NC(=O)c2ccc(C(F)(F)F)c(-c3cc[nH]n3)c2)c(-c2ccccc2)n1 [Example 21, N-(2-methyl-4-phenylpyrimidin-5-yl)-3-(1H-pyrazol-3-yl)-4-(trifluoromethyl)benzamide] | 35
Cn1ccc(-c2cc(C(=O)Nc3ncccc3-c3ccccc3)ccc2C(F)(F)F)n1 [Example 22, 3-(1-methyl-1H-pyrazol-3-yl)-N-(3-phenylpyridin-2-yl)-4-(trifluoromethyl)benzamide] | 64
Cc1ncc(NC(=O)c2cc(-c3ccn(C)n3)c(C(F)(F)F)cc2Cl)c(-c2ccccc2)n1 [Example 23, 2-chloro-N-(2-methyl-4-phenylpyrimidin-5-yl)-5-(1-methyl-1H-pyrazol-3-yl)-4-(trifluoromethyl)benzamide] | 1.1
Cn1ccc(-c2cc(C(=O)Nc3nccnc3-c3ccccc3)ccc2C(F)(F)F)n1 [Example 25, 3-(1-methyl-1H-pyrazol-3-yl)-N-(3-phenylpyrazin-2-yl)-4-(trifluoromethyl)benzamide] | 83
Cc1nc(C)c(NC(=O)c2ccc(C(F)(F)F)c(-c3ccn(C)n3)c2)c(-c2ccccc2)n1 [Example 26, N-(2,4-dimethyl-6-phenylpyrimidin-5-yl)-3-(1-methyl-1H-pyrazol-3-yl)-4-(trifluoromethyl)benzamide] | 210
Cc1ncc(NC(=O)c2cc(-c3ncccn3)c(C(F)(F)F)cc2F)c(-c2ccccc2)n1 [Example 28, 2-fluoro-N-(2-methyl-4-phenylpyrimidin-5-yl)-5-pyrimidin-2-yl-4-(trifluoromethyl)benzamide] | 9.6
Cc1coc(-c2cc(C(=O)Nc3cnc(C)nc3-c3ccccc3)ccc2C(F)(F)F)n1 [Example 29, 3-(4-methyl-1,3-oxazol-2-yl)-N-(2-methyl-4-phenylpyrimidin-5-yl)-4-(trifluoromethyl)benzamide] | 4
Cc1noc(-c2cc(C(=O)Nc3cnc(C)nc3-c3ccccc3)ccc2C(F)(F)F)n1 [Example 30, 3-(3-methyl-1,2,4-oxadiazol-5-yl)-N-(2-methyl-4-phenylpyrimidin-5-yl)-4-(trifluoromethyl)benzamide] | 130
Cc1ncc(NC(=O)c2ccc(C(F)(F)F)c(-c3ccn(C)n3)c2)c(-c2ccc(F)cc2)n1 [Example 31, N-[4-(4-fluorophenyl)-2-methylpyrimidin-5-yl]-3-(1-methyl-1H-pyrazol-3-yl)-4-(trifluoromethyl)benzamide] | 5.5
Cc1cccc(-c2nc(C)ncc2NC(=O)c2ccc(C(F)(F)F)c(-c3ccn(C)n3)c2)c1 [Example 32, N-[2-methyl-4-(3-methylphenyl)pyrimidin-5-yl]-3-(1-methyl-1H-pyrazol-3-yl)-4-(trifluoromethyl)benzamide] | 8.3
Cc1ncc(NC(=O)c2cc(C3CCC(C)O3)c(C(F)(F)F)cc2F)c(-c2ccccc2)n1 (stereo not drawn) [Example 33, 2-fluoro-N-(2-methyl-4-phenylpyrimidin-5-yl)-5-(5-methyltetrahydrofuran-2-yl)-4-(trifluoromethyl)benzamide] | 56
Cn1ccc(-c2cc(C(=O)Nc3cnc(CC#N)nc3-c3ccccc3)c(F)cc2C(F)(F)F)n1 [Example 34, N-(2-(cyanomethyl)-4-phenylpyrimidin-5-yl)-2-fluoro-5-(1-methyl-1H-pyrazol-3-yl)-4-(trifluoromethyl)benzamide] | 0.69
Cn1ccc(-c2cc(C(=O)Nc3cnc(CO)nc3-c3ccccc3)ccc2C(F)(F)F)n1 [Example 35, N-(2-(Hydroxymethyl)-4-phenylpyrimidin-5-yl)-3-(1-methyl-1H-pyrazol-3-yl)-4-(trifluoromethyl)benzamide] | 7.3
O=C(Nc1cnc(CO)nc1-c1ccccc1)c1ccc(C(F)(F)F)c(-c2cc[nH]n2)c1 [Example 36, N-(2-(hydroxymethyl)-4-phenylpyrimidin-5-yl)-3-(1H-pyrazol-3-yl)-4-(trifluoromethyl)benzamide] | 24
Cn1ccc(-c2cc(C(=O)Nc3cnc(CCO)nc3-c3ccccc3)ccc2C(F)(F)F)n1 [Example 37, N-(2-(2-hydroxyethyl)-4-phenylpyrimidin-5-yl)-3-(1-methyl-1H-pyrazol-3-yl)-4-(trifluoromethyl)benzamide] | 4

Further lines, results first:

IC50 [nM] | Compound
25 | Cn1ccc(-c2cc(C(=O)Nc3cnc(CCN4CCOCC4)nc3-c3ccccc3)ccc2C(F)(F)F)n1 [Example 38, 3-(1-methyl-1H-pyrazol-3-yl)-N-(2-(2-morpholinoethyl)-4-phenylpyrimidin-5-yl)-4-(trifluoromethyl)benzamide]
70 | O=C(Nc1cnc(CO)nc1-c1ccccc1)c1ccc(C(F)(F)F)c(-c2ncccn2)c1 [Example 39, N-(2-(Hydroxymethyl)-4-phenylpyrimidin-5-yl)-3-(pyrimidin-2-yl)-4-(trifluoromethyl)benzamide]
12 | O=C(Nc1cnc(CO)nc1-c1ccccc1)c1ccc(C(F)(F)F)c(-c2cc[nH]n2)c1 [Example 40, N-(2-(hydroxymethyl)-4-phenylpyrimidin-5-yl)-3-(1H-pyrazol-3-yl)-4-(trifluoromethyl)benzamide]
5 | Cn1ccc(-c2cc(C(=O)Nc3cnc(CNC(=O)OC(C)(C)C)nc3-c3ccccc3)ccc2C(F)(F)F)n1 [Example 41, t-Butyl ((5-(3-(1-methyl-1H-pyrazol-3-yl)-4-(trifluoromethyl)benzamido)-4-phenylpyrimidin-2-yl)methyl)carbamate]
21 | Cn1ccc(-c2cc(C(=O)Nc3cnc(CN)nc3-c3ccccc3)ccc2C(F)(F)F)n1 [Example 42, N-(2-(Aminomethyl)-4-phenylpyrimidin-5-yl)-3-(1-methyl-1H-pyrazol-3-yl)-4-(trifluoromethyl)benzamide]
55 | NCc1ncc(NC(=O)c2ccc(C(F)(F)F)c(-c3ccn(C(F)F)n3)c2)c(-c2ccccc2)n1 [Example 43]
20 | Cc1ncc(NC(=O)c2ccc(C(F)(F)F)c(-c3ccn(C)n3)c2)c(-c2cccc(CO)c2)n1 [Example 44, N-(4-(3-(Hydroxymethyl)phenyl)-2-methylpyrimidin-5-yl)-3-(1-methyl-1H-pyrazol-3-yl)-4-(trifluoromethyl)benzamide]
16 | CNCc1ncc(NC(=O)c2ccc(C(F)(F)F)c(-c3ccn(C)n3)c2)c(-c2ccccc2)n1 [Example 45]
24 | Cc1nc(CO)c(NC(=O)c2ccc(C(F)(F)F)c(-c3ccn(C)n3)c2)c(-c2ccccc2)n1 [Example 46, N-(4-(Hydroxymethyl)-2-methyl-6-phenylpyrimidin-5-yl)-3-(1-methyl-1H-pyrazol-3-yl)-4-(trifluoromethyl)benzamide]
1.3 | Cn1ccc(-c2cc(C(=O)Nc3ccc(C(C)(C)O)nc3-c3ccccc3)ccc2C(F)(F)F)n1 [Example 47, N-(6-(2-hydroxypropan-2-yl)-2-phenylpyridin-3-yl)-3-(1-methyl-1H-pyrazol-3-yl)-4-(trifluoromethyl)benzamide]
1.1 | C[C@H](O)C(=O)NCc1ncc(NC(=O)c2cc(-c3ccn(C)n3)c(C(F)(F)F)cc2F)c(-c2ccccc2)n1 [Example 48]
3.6 | CC(=O)NCc1ncc(NC(=O)c2ccc(C(F)(F)F)c(-c3ccn(C)n3)c2)c(-c2ccccc2)n1 [Example 49, N-(2-(acetamidomethyl)-4-phenylpyrimidin-5-yl)-3-(1-methyl-1H-pyrazol-3-yl)-4-(trifluoromethyl)benzamide]
3.6 | Cn1ccc(-c2cc(C(=O)Nc3cnc(CNC(=O)CO)nc3-c3ccccc3)ccc2C(F)(F)F)n1 [Example 50, N-(2-((2-hydroxyacetamido)methyl)-4-phenylpyrimidin-5-yl)-3-(1-methyl-1H-pyrazol-3-yl)-4-(trifluoromethyl)benzamide]
4.9 | Cn1ccc(-c2cc(C(=O)Nc3cnc(CNC(=O)C4CC4)nc3-c3ccccc3)ccc2C(F)(F)F)n1 [Example 51, N-(2-(cyclopropanecarboxamidomethyl)-4-phenylpyrimidin-5-yl)-3-(1-methyl-1H-pyrazol-3-yl)-4-(trifluoromethyl)benzamide]
1.6 | Cn1ccc(-c2cc(C(=O)Nc3cnc(CNC(=O)CO)nc3-c3ccccc3)c(F)cc2C(F)(F)F)n1 [Example 52, 2-fluoro-N-(2-((2-hydroxyacetamido)methyl)-4-phenylpyrimidin-5-yl)-5-(1-methyl-1H-pyrazol-3-yl)-4-(trifluoromethyl)benzamide]
5.7 | Cn1ccc(-c2cc(C(=O)Nc3ccc(CNC(=O)CO)nc3-c3ccccc3)ccc2C(F)(F)F)n1 [Example 53, N-(6-((2-hydroxyacetamido)methyl)-2-phenylpyridin-3-yl)-3-(1-methyl-1H-pyrazol-3-yl)-4-(trifluoromethyl)benzamide]
9.3 | CC(=O)NCc1ncc(NC(=O)c2cc(-c3cc[nH]n3)c(C(F)(F)F)cc2F)c(-c2ccccc2)n1 [Example 54, N-(2-(acetamidomethyl)-4-phenylpyrimidin-5-yl)-2-fluoro-5-(1H-pyrazol-3-yl)-4-(trifluoromethyl)benzamide]
14 | Cn1ccc(-c2cc(C(=O)Nc3cnc(CNC(=O)CO)cc3-c3ccccc3)ccc2C(F)(F)F)n1 [Example 55, N-(6-((2-hydroxyacetamido)methyl)-4-phenylpyridin-3-yl)-3-(1-methyl-1H-pyrazol-3-yl)-4-(trifluoromethyl)benzamide]
0.45 | C[C@H](O)C(=O)NCc1ccc(NC(=O)c2cc(-c3ccn(C)n3)c(C(F)(F)F)cc2F)c(-c2ccccc2)n1 [Example 56, (S)-2-fluoro-N-(6-((2-hydroxypropanamido)methyl)-2-phenylpyridin-3-yl)-5-(1-methyl-1H-pyrazol-3-yl)-4-(trifluoromethyl)benzamide]
1.1 | Cn1ccc(-c2cc(C(=O)Nc3ccc(CNC(=O)[C@@H]4CCC(=O)N4)nc3-c3ccccc3)c(F)cc2C(F)(F)F)n1 [Example 57, (S)-N-((5-(2-fluoro-5-(1-methyl-1H-pyrazol-3-yl)-4-(trifluoromethyl)benzamido)-6-phenylpyridin-2-yl)methyl)-5-oxopyrrolidine-2-carboxamide]
